Data published in the NIST ThermoML archive (doi:10.1016/j.jct.2016.12.015).
Numbers after ± are expanded uncertainties.

Test: molar heat capacity at constant pressure
Details: 101.33 kPa, Crystal, Small (less than 1 g) adiabatic calorimetry

C[C@H]1C[C@@H]2[C@H]([C@@H](O)C[C@@]3(C)[C@H]2CC[C@]3(O)C(=O)CO)[C@@]2(C)C=CC(=O)C=C12 [Methylprednisolone]
Details | molar heat capacity at constant pressure [J/K/mol]
5 K | 0.981 ± 0.052
6.33 K | 2.001 ± 0.091
6.49 K | 2.141 ± 0.096
6.65 K | 2.26 ± 0.1
6.78 K | 2.357 ± 0.1
6.95 K | 2.495 ± 0.11
7.1 K | 2.55 ± 0.11
7.24 K | 2.74 ± 0.12
7.49 K | 3.021 ± 0.13
7.82 K | 3.43 ± 0.15
8.13 K | 3.81 ± 0.17
8.44 K | 4.275 ± 0.18
8.75 K | 4.579 ± 0.2
9.05 K | 4.913 ± 0.21
9.36 K | 5.269 ± 0.23
9.69 K | 5.653 ± 0.24
10 K | 6.06 ± 0.26
10.01 K | 6.058 ± 0.26
10.33 K | 6.528 ± 0.28
10.66 K | 6.921 ± 0.29
11 K | 7.373 ± 0.31
11.38 K | 7.86 ± 0.33
11.77 K | 8.373 ± 0.35
12.06 K | 8.762 ± 0.37
12.88 K | 9.96 ± 0.42
14.16 K | 11.96 ± 0.5
15 K | 13.31 ± 0.55
15.44 K | 14.15 ± 0.59
16.74 K | 16.54 ± 0.68
18.07 K | 19.18 ± 0.79
19.43 K | 21.92 ± 0.9
20 K | 22.8 ± 0.94
22.43 K | 28.16 ± 0.37
25 K | 33.3 ± 0.42
25.22 K | 33.67 ± 0.42
28.44 K | 39.96 ± 0.48
30 K | 42.63 ± 0.48
31.97 K | 46.03 ± 0.52
35 K | 51.54 ± 0.58
35.53 K | 52.34 ± 0.58
39.09 K | 58.93 ± 0.65
40 K | 60.39 ± 0.67
42.67 K | 65.35 ± 0.4
45 K | 69.3 ± 0.42
46.26 K | 71.33 ± 0.43
49.86 K | 77.8 ± 0.47
50 K | 78.27 ± 0.47
53.45 K | 84.8 ± 0.5
57.05 K | 91.01 ± 0.54
60 K | 96.39 ± 0.57
60.67 K | 97.6 ± 0.57
64.3 K | 104 ± 0.6
67.91 K | 110.8 ± 0.6
70 K | 114.2 ± 0.7
71.53 K | 116.8 ± 0.7
75.17 K | 122.4 ± 0.7
78.82 K | 129.7 ± 0.7
80 K | 131.5 ± 0.8
81.9 K | 134.6 ± 0.8
82.48 K | 136 ± 0.8
86.1 K | 142.8 ± 0.8
86.12 K | 142.4 ± 0.8
89.32 K | 147.8 ± 0.8
90 K | 149.3 ± 0.8
92.91 K | 154.1 ± 0.8
96.5 K | 159.9 ± 0.9
100 K | 165.9 ± 0.9
100.08 K | 165.8 ± 0.9
103.66 K | 171.9 ± 0.9
107.23 K | 178 ± 1
110 K | 182.1 ± 1
110.81 K | 183.4 ± 1
114.37 K | 188.6 ± 1
117.93 K | 195.4 ± 1
120 K | 198.1 ± 1.1
121.48 K | 200.9 ± 1.1
125.04 K | 206.7 ± 1.1
128.59 K | 212 ± 1.1
130 K | 213.9 ± 1.1
132.14 K | 217.1 ± 1.2
135.68 K | 222.2 ± 1.2
139.22 K | 228.2 ± 1.2
140 K | 229.6 ± 1.2
142.74 K | 233.6 ± 1.2
146.27 K | 238.8 ± 1.3
149.79 K | 244.2 ± 1.3
150 K | 245 ± 1.3
153.3 K | 250 ± 1.3
156.82 K | 254.9 ± 1.3
160 K | 260.2 ± 1.4
160.33 K | 260.9 ± 1.4
163.83 K | 266.4 ± 1.4
167.33 K | 271.7 ± 1.4
170 K | 275.3 ± 1.4
170.82 K | 276.8 ± 1.4
174.31 K | 282.2 ± 1.5
177.79 K | 287.2 ± 1.5
180 K | 290.3 ± 1.5
181.26 K | 292.5 ± 1.5
184.73 K | 297.4 ± 1.5
188.19 K | 302.5 ± 1.6
190 K | 305.3 ± 1.6
191.65 K | 307.8 ± 1.6
195.06 K | 312.7 ± 1.6
198.5 K | 318.2 ± 1.6
200 K | 320.4 ± 1.7
201.93 K | 323.6 ± 1.7
205.36 K | 328.5 ± 1.7
208.8 K | 333.1 ± 1.7
210 K | 335.6 ± 1.7
212.23 K | 338.2 ± 1.7
215.66 K | 343.7 ± 1.8
219.09 K | 349.3 ± 1.8
220 K | 350.7 ± 1.8
222.53 K | 355 ± 1.8
225.95 K | 361 ± 1.9
229.38 K | 364.2 ± 1.9
230 K | 365.9 ± 1.9
232.82 K | 370.1 ± 1.9
236.24 K | 375.2 ± 1.9
239.67 K | 380.7 ± 2
240 K | 381.1 ± 2
243.1 K | 385.9 ± 2
246.53 K | 391.1 ± 2
249.92 K | 396.2 ± 2
250 K | 396.3 ± 2
253.35 K | 401.5 ± 2.1
256.77 K | 406.9 ± 2.1
260 K | 411.6 ± 2.1
260.19 K | 412 ± 2.1
263.6 K | 417.5 ± 2.1
267.02 K | 422.9 ± 2.2
270 K | 427.1 ± 2.2
270.43 K | 428.4 ± 2.2
273.84 K | 432.9 ± 2.2
277.25 K | 438.4 ± 2.2
280 K | 442.9 ± 2.3
280.64 K | 443.7 ± 2.3
284.03 K | 449 ± 2.3
287.42 K | 454 ± 2.3
290 K | 458.9 ± 2.3
290.79 K | 460.1 ± 2.3
294.15 K | 465.4 ± 2.4
297.51 K | 471.2 ± 2.4
298.15 K | 472.1 ± 2.4
300 K | 475.1 ± 2.4
300.85 K | 475.9 ± 2.4
304.09 K | 481.9 ± 2.4
307.42 K | 487.8 ± 2.5
310 K | 491.2 ± 2.5
310.76 K | 492.9 ± 2.5
314.09 K | 498.1 ± 2.5
317.42 K | 503 ± 2.5
320 K | 507 ± 2.6
320.76 K | 508 ± 2.6
324.1 K | 513.3 ± 2.6
327.44 K | 518.2 ± 2.6
330 K | 522.5 ± 2.6
330.78 K | 523.9 ± 2.7
334.13 K | 529 ± 2.7
337.48 K | 534 ± 2.7
340 K | 538.4 ± 2.7
340.82 K | 539.6 ± 2.7
344.16 K | 545.9 ± 2.8
347.5 K | 551.7 ± 2.8
350 K | 556.8 ± 2.8
350.09 K | 556.9 ± 2.8
